Tests used:
Assay type in all cases: in vivo
Lucilia cuprina larvae = assay: Lucilia cuprina test (larvae in minced horse meat); settings: application rate 100 ppm, larvae, after 2 days
Protocol: (§1) Solvent: dimethyl sulfoxide
To produce a suitable preparation of active compound, 10 mg of active compound are dissolved in 0.5 ml solvent, and the concentrate is diluted with water to the desired concentration. Approximately 20-30 (Lucilia cuprina larvae) are transferred into a test tube containing 1 cm^3 of minced horse meat and 0.5 ml aqueous dilution of test compound. After 2 days mortality in % is determined 100% means that all the larvae have been killed; 0% means that none of the larvae have been killed.

Boophilus microplus [1] = assay: Boophilus microplus test (injection); settings: application rate 20 μg/animal, adult engorged females, after 7 days
Protocol: as §1
To produce a suitable preparation of active compound, 10 mg of active compound are dissolved in 0.5 ml solvent, and the concentrate is diluted with solvent to the desired concentration. Five adult engorged female ticks (Boophilus microplus) are injected with compound solution into the abdomen. Ticks are transferred into replica plates and incubated in a climate chamber for a period of time. Egg deposition of fertile eggs is monitored. After 7 days mortality in % is determined 100% means that all eggs are infertile; 0% means that all eggs are fertile.

[2] = tested on: organic phosphorus agent- and carbamate agent-resistant Myzus persicae; assay: Test for organic phosphorus agent- and carbamate agent-resistant Myzus persicae (spray, eggplant); settings: 100 ppm active ingredient, 7 days
Protocol: If not mentioned otherwise, all sample solutions were prepared as described in Biological Test Example 1 and diluted to the appropriate (predetermined) concentrations.
About 30 to 50 of grown organic phosphorus agent- and carbamate agent-resistant Myzus persicae per seedling were inoculated to leaves at 2-leaf stage of eggplants grown in a pot of 6 cm in diameter, to which, after 1 day from the inoculation, the above prepared water-diluted solution of above active compound of the predetermined concentration was sufficiently sprayed with a spray gun. After the spraying, the pot was left in a greenhouse at room temperature for 7 days, followed by the pest-controlling rate calculated. The test was repeated twice.

Boophilus microplus [3] = assay: Boophilus microplus (dip); settings: application rate 100 ppm, adult engorged females, after 7 days
Protocol: as §1
To produce a suitable preparation of active compound, 10 mg of active compound are dissolved in 0.5 ml solvent, and the concentrate is diluted with water to the desired concentration. Eight to ten adult engorged female Boophilus microplus ticks are placed in perforated plastic beakers and immersed in aqueous compound solution for one minute. Ticks are transferred to a filter paper in a plastic tray. Egg deposition of fertile eggs is monitored after. After 7 days mortality in % is determined 100% means that all the ticks have been killed; 0% means that none of the ticks have been killed.

Musca domestica = Musca domestica test (sugar sponge); settings: application rate 100 ppm, adults, after 2 days
Protocol: as §1
To produce a suitable preparation of active compound, 10 mg of active compound are dissolved in 0.5 ml solvent, and the concentrate is diluted with water to the desired concentration. Prior to the assay, a piece or kitchen sponge is soaked with a mixture of sugar and compound solution and placed into a container. 10 adults (Musca domestica) are placed into the container and closed with a perforated lid. After 2 days mortality in % is determined. 100% means that all the flies have been killed; 0% means that none of the flies have been killed.

Amblyomma hebraeum = Amblyomma hebraeum test (AMBYHE), nymph immersion; settings: application rate 100 ppm, nymphs, after 42 days
Protocol: as §1
To produce a suitable preparation of active compound, 10 mg of active compound are dissolved in 0.5 ml solvent, and the concentrate is diluted with water to the desired concentration. Nymphs of the tick Amblyomma hebraeum are placed in perforated plastic beakers and immersed in aqueous compound solution for one minute. Ticks are transferred to a filter paper in a Petri dish and incubated in a climate chamber for 42 days.
After 42 days mortality in % is determined 100% means that all the ticks have been killed; 0% means that none of the ticks have been killed.

| Compound | activity (mortality in %) (Lucilia cuprina larvae) | activity (100% means that all eggs are infertile) (Boophilus microplus [1]) | also measured |
| --- | --- | --- | --- |
| COCCNC(=O)NCc1ccc(N2CCC(c3cc(Cl)cc(Cl)c3)(C(F)(F)F)C2)cc1C(F)(F)F (centres unmarked) [1-243] | 95% | 100% | – |
| Cc1nc(N2CCC(c3cc(Cl)cc(Cl)c3)(C(F)(F)F)C2)ncc1C(=O)NCC(F)(F)F (centres unmarked) [2-69] | 90% | 100% | – |
| NCc1ccc(N2CCC(c3cc(Cl)c(Cl)c(Cl)c3)(C(F)(F)F)C2)cc1Cl (centres unmarked) [1-336] | 90% | 100% | – |
| O=C(CC(F)(F)F)NCc1ccc(N2CCC(c3cc(C(F)(F)F)cc(C(F)(F)F)c3)(C(F)(F)F)C2)cc1Br (centres unmarked) [1-314] | – | 100% | insecticidal rate (pest-controlling rate) [2]: 100% |
| CCC(=O)NCc1cnc(N2CCC(c3cc(Cl)c(Cl)c(Cl)c3)(C(F)(F)F)C2)nc1C(F)(F)F (centres unmarked) [3-142] | – | 100% | insecticidal rate (pest-controlling rate) [2]: 100% |
| CC=CC(=O)NCc1ccc(N2CCC(c3cc(Cl)cc(Cl)c3)(C(F)(F)F)C2)cc1C(F)(F)F (centres unmarked) [1-174] | – | 100% | activity (mortality in %) (Boophilus microplus [3]): 80% |
| O=C(CC(F)(F)F)NCc1sc(N2CCC(c3cc(C(F)(F)F)cc(C(F)(F)F)c3)(C(F)(F)F)C2)nc1C(F)(F)F (centres unmarked) [5-150] | – | 100% | activity (mortality in %) (Musca domestica): 95% |
| O=C(NCc1ccc(N2CCC(c3cc(Cl)cc(Cl)c3)(C(F)(F)F)C2)cc1C(F)(F)F)N1CCOCC1 (centres unmarked) [1-257] | 95% | 100% | – |
| C#CCNC(=O)NCc1ccc(N2CCC(c3cc(Cl)cc(Cl)c3)(C(F)(F)F)C2)cc1C(F)(F)F (centres unmarked) [1-231] | – | 100% | activity (mortality in %) (Musca domestica): 95% |
| COCCNC(=O)NCc1ccc(N2CCC(c3cc(Cl)cc(Cl)c3)(C(F)(F)F)C2)cc1Cl (centres unmarked) [1-97] | 90% | 100% | – |
| O=S(=O)(CC(F)(F)F)NCc1ccc(N2CCC(c3cc(Cl)c(Cl)c(Cl)c3)(C(F)(F)F)C2)cc1C(F)(F)F (centres unmarked) [1-334] | 90% | 100% | – |
| O=C(NCc1ccc(N2CCC(c3cc(Cl)cc(Cl)c3)(C(F)(F)F)C2)cc1Cl)NCC(F)(F)F (centres unmarked) [1-78] | – | 100% | activity (mortality in %) (Boophilus microplus [3]): 80% |
| O=C(NCc1ccc(N2CCC(c3cc(Cl)cc(Cl)c3)(C(F)(F)F)C2)cc1C(F)(F)F)C(F)F (centres unmarked) [1-164] | – | 100% | activity (mortality in %) (Boophilus microplus [3]): 95% |
| CCC(=O)NCc1ccc(N2CCC(c3cc(Cl)cc(C(F)(F)F)c3)(C(F)(F)F)C2)cc1C(F)(F)F (centres unmarked) [1-356] | – | – | insecticidal rate (pest-controlling rate) [2]: 100% |
| N#CCC(=O)NCc1ccc(N2CCC(c3cc(Cl)cc(Cl)c3)(C(F)(F)F)C2)cc1Cl (centres unmarked) [1-39] | – | 100% | activity (mortality in %) (Musca domestica): 90% |
| O=C(NCc1ccc(N2CCC(c3cc(C(F)(F)F)cc(C(F)(F)F)c3)(C(F)(F)F)C2)cc1C(F)(F)F)NC1CC1 (centres unmarked) [1-305] | – | 100% | activity (mortality in %) (Amblyomma hebraeum): 90%; activity (mortality in %) (Boophilus microplus [3]): 80% |
| O=C(CC(F)(F)F)NCc1ccc(N2CCC(c3cc(Cl)cc(Cl)c3)(C(F)(F)F)C2)cc1C(F)(F)F (centres unmarked) [1-162] | – | 100% | activity (mortality in %) (Boophilus microplus [3]): 95% |
| NCc1ccc(N2CCC(c3cc(C(F)(F)F)cc(C(F)(F)F)c3)(C(F)(F)F)C2)cc1Cl (centres unmarked) [1-306] | 90% | – | – |
| O=C(NCC(F)(F)F)c1sc(N2CCC(c3cc(Cl)c(Cl)c(Cl)c3)(C(F)(F)F)C2)nc1C(F)(F)F (centres unmarked) [4-21] | – | 100% | activity (mortality in %) (Musca domestica): 90% |

| Compound | activity (mortality in %) (Lucilia cuprina larvae) | activity (100% means that all eggs are infertile) (Boophilus microplus [1]) | also measured |
| --- | --- | --- | --- |
| CC(C)CC(=O)NCc1ccc(N2CCC(c3cc(Cl)cc(Cl)c3)(C(F)(F)F)C2)cc1Cl (centres unmarked) [1-7] | – | 100% | activity (mortality in %) (Boophilus microplus [3]): 80% |
| CCCC(=O)NCc1ccc(N2CCC(c3cc(Cl)c(Cl)c(Cl)c3)(C(F)(F)F)C2)cc1C(F)(F)F (centres unmarked) [1-328] | – | – | insecticidal rate (pest-controlling rate) [2]: 100% |
| CC(C)(C)OC(=O)NCc1ccc(N2CCC(c3cc(Cl)c(Cl)c(Cl)c3)(C(F)(F)F)C2)cc1Cl (centres unmarked) [1-694] | 80% | 100% | – |
| CNC(=O)NCc1ccc(N2CCC(c3cc(C(F)(F)F)cc(C(F)(F)F)c3)(C(F)(F)F)C2)cc1C(F)(F)F (centres unmarked) [1-301] | – | 100% | activity (mortality in %) (Boophilus microplus [3]): 80% |
| CCNC(=O)NCc1ccc(N2CCC(c3cc(Cl)cc(Cl)c3)(C(F)(F)F)C2)cc1C(F)(F)F (centres unmarked) [1-220] | – | 100% | activity (mortality in %) (Musca domestica): 90% |
| CCC(=O)NCc1sc(N2CCC(c3cc(Cl)cc(Cl)c3)(C(F)(F)F)C2)nc1C(F)(F)F (centres unmarked) [5-4] | – | 100% | activity (mortality in %) (Musca domestica): 85% |
| O=C(CC(F)(F)F)NCc1ccc(N2CCC(c3cc(C(F)(F)F)cc(C(F)(F)F)c3)(C(F)(F)F)C2)cc1Cl (centres unmarked) [1-309] | – | 100% | insecticidal rate (pest-controlling rate) [2]: 100% |
| CCCNC(=O)NCc1ccc(N2CCC(c3cc(Cl)cc(Cl)c3)(C(F)(F)F)C2)cc1Cl (centres unmarked) [1-79] | 90% | 100% | – |
| CSCCC(=O)NCc1ccc(N2CCC(c3cc(Cl)cc(Cl)c3)(C(F)(F)F)C2)cc1Cl (centres unmarked) [1-467] | – | 100% | activity (mortality in %) (Amblyomma hebraeum): 90%; activity (mortality in %) (Boophilus microplus [3]): 90% |
| O=C(Cn1cncn1)NCc1ccc(N2CCC(c3cc(Cl)cc(Cl)c3)(C(F)(F)F)C2)cc1C(F)(F)F (centres unmarked) [1-558] | – | 100% | activity (mortality in %) (Boophilus microplus [3]): 80% |
| CCNC(=O)NCc1ccc(N2CCC(c3cc(C(F)(F)F)cc(C(F)(F)F)c3)(C(F)(F)F)C2)cc1C(F)(F)F (centres unmarked) [1-302] | – | 100% | activity (mortality in %) (Boophilus microplus [3]): 90% |
| CCNC(=O)NCc1ccc(N2CCC(c3cc(Cl)cc(Cl)c3)(C(F)(F)F)C2)cc1Cl (centres unmarked) [1-77] | – | 100% | activity (mortality in %) (Boophilus microplus [3]): 80% |
| C=CCNC(=O)NCc1ccc(N2CCC(c3cc(Cl)cc(Cl)c3)(C(F)(F)F)C2)cc1Cl (centres unmarked) [1-87] | 80% | 100% | – |
| CSCCNC(=O)NCc1ccc(N2CCC(c3cc(Cl)cc(Cl)c3)(C(F)(F)F)C2)cc1C(F)(F)F (centres unmarked) [1-244] | 80% | 100% | – |
| O=C(CC(F)(F)F)NCc1sc(N2CCC(c3cc(Cl)cc(Cl)c3)(C(F)(F)F)C2)nc1C(F)(F)F (centres unmarked) [5-22] | – | 100% | activity (mortality in %) (Musca domestica): 95% |
| CN(Cc1ccc(N2CCC(c3cc(Cl)cc(Cl)c3)(C(F)(F)F)C2)cc1Cl)C(=O)C1CC1 (centres unmarked) [1-74] | 90% | 100% | – |
| O=C(NCCC(F)(F)F)NCc1ccc(N2CCC(c3cc(Cl)cc(Cl)c3)(C(F)(F)F)C2)cc1C(F)(F)F (centres unmarked) [1-238] | – | 100% | activity (mortality in %) (Amblyomma hebraeum): 85%; activity (mortality in %) (Musca domestica): 90% |
| CCSCC(=O)NCc1ccc(N2CCC(c3cc(Cl)cc(Cl)c3)(C(F)(F)F)C2)cc1C(F)(F)F (centres unmarked) [1-499] | – | 100% | activity (mortality in %) (Musca domestica): 90% |

From patent US9266830B2, “Pesticidal arylpyrrolidines” (Bayer Intellectual Property GmbH, priority 2007, dated 2016)
